{
  "source": "paper PMC2816653",
  "about": "“Pre-clinical evaluation of cyclin-dependent kinase 2 and 1 inhibition in anti-estrogen-sensitive and resistant breast cancer cells” (British Journal of Cancer, 2009)",
  "test_in_all_cases": "biochemical",
  "set-up_in_all_cases": "in vitro kinase inhibition assay",
  "key": {"DYRK1a": {"biological_target": "DYRK1a (Homo sapiens, UniProt Q13627)"}, "CDK5/p25": {"biological_target": "T1, CDK5/p25 (Homo sapiens, UniProt Q00535)", "T1 construct": "with p25", "T1 sequence (Q00535 whole entry)": "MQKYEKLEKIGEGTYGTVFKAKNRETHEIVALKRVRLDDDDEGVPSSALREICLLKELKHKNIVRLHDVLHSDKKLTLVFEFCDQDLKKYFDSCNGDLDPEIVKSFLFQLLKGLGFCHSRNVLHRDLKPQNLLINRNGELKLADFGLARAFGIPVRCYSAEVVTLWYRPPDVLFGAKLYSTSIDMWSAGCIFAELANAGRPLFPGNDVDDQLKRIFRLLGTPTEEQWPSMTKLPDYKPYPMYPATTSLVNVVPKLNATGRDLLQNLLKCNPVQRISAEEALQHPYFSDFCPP", "T1 sequence (Q15078 whole entry partner)": "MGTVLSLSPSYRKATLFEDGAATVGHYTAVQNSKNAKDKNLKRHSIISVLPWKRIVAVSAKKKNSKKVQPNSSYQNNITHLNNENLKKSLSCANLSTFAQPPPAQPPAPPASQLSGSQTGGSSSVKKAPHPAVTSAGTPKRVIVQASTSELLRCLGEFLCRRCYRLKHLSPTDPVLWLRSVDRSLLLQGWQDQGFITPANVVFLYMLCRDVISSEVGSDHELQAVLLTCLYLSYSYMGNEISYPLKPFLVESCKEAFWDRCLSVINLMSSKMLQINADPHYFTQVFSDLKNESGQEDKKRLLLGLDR", "settings": "read-out: NU2058 % inhibition"}, "CDK9/cyclin T": {"biological_target": "CDK9/cyclin T (Homo sapiens, UniProt P50750)", "sequence (P50750 whole entry)": "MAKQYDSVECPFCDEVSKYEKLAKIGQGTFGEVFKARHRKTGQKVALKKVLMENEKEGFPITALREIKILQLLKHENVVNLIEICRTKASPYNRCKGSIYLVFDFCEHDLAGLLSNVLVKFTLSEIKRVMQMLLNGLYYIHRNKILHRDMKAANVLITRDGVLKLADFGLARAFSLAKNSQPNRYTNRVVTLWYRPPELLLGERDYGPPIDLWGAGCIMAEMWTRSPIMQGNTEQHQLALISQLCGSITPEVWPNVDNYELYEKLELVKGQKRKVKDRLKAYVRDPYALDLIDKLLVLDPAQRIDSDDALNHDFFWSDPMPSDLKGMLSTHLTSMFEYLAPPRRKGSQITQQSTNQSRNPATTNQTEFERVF", "sequence (O60563 whole entry partner)": "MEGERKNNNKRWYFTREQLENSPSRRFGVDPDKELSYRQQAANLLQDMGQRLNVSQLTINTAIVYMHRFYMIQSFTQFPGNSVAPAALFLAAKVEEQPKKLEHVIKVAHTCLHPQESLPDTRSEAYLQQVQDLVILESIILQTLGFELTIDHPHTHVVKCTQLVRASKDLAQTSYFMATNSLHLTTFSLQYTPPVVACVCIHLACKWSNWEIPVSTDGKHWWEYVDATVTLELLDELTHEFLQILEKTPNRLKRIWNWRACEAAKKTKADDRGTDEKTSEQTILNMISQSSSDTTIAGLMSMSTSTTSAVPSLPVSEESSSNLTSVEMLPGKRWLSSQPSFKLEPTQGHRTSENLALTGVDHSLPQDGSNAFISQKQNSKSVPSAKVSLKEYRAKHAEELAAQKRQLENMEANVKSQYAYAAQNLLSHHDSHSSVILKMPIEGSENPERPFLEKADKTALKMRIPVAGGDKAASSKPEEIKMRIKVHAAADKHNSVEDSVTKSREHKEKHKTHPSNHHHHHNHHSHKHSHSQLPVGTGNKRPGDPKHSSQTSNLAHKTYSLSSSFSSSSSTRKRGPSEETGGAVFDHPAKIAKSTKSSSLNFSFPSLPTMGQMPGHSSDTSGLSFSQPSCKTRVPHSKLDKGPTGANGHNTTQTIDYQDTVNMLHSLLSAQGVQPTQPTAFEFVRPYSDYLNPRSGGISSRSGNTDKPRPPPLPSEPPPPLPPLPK", "settings": "read-out: NU2058 % inhibition"}},
  "data": [
    {"smiles": "NS(=O)(=O)c1ccc(Nc2nc(OCC3CCCCC3)c3nc[nH]c3n2)cc1", "note": "[NU6102]", "values": [
      {"measurement": "IC50", "setting": "DYRK1a", "value": 950, "unit": "nM"}
    ]},
    {"smiles": "Nc1nc(OCC2CCCCC2)c2nc[nH]c2n1", "note": "[NU2058]", "values": [
      {"measurement": "inhibition at 100 µM", "setting": "CDK5/p25", "value": 50, "unit": "%"},
      {"measurement": "inhibition at 100 µM", "setting": "CDK9/cyclin T", "value": 43, "unit": "%"}
    ]}
  ]
}
